Patent publication US6506431B2, “Spore germination inhibitor and food containing the same” (Ajinomoto Co., Inc., priority 2000, dated 2003)

Tests used:
Bacillus subtilis spores [1] = experiment: Spore germination-inhibitory effects by CPC, AGFK germinator (Example 2); format: cell-based; conditions: 1 mg/ml CPC, 37° C., 2 hours
Procedure: The germination-inhibitory activity was measured as follows: ½ volume of a sample was allowed to react with ½ volume of spore suspension (0.2 mg/ml Bacillus subtilis spores, 40 mM Tris HCl, pH 7.5) containing germinator (20 mM L-asparagine, 2 mM D-glucose, 2 mM D-fructose, 20 mM KCl) at 37° C. The spores gradually darkened with germination increase, and turbidity of the suspension decreased. Thereupon, the turbidity of the spore suspension was measured at 600 nm using a spectrophotometer, and a germination rate was determined by calculating the rate of decrease of turbidity. In order to examine the germination-inhibitory effects of CPC, the following tests were conducted. Spore suspension containing 0.1 mg/ml Bacillus subtilis spores, 20 mM Tris.HCl, pH 7.5. Spore suspension as above further containing 10 mM L-asparagine, 1 mM D-glucose, 1 mM D-fructose and 10 mM KCl as germinator. Spore suspension as above containing the germination (Test Group 2) and further containing 1 mg/ml CPC. The above spore suspensions were allowed to react at 37° C. for 2 hours, and spore germination conditions were examined. The turbidity of each test group after 2 hours was measured at 600 nm using a spectrophotometer. In the test group 2, the turbidity of the spore suspension was decreased remarkably compared with the start of the reaction, and sufficient germination of spores was found. […]

[2] = Solubility of CPC (properties); format: physicochemical
Bacillus subtilis spores [3] = experiment: Germination inhibition by combination of CPC and D-alanine in sufficient nutrients (Example 3); format: cell-based; conditions: 1 mg/ml each; for variation of the turbidity of the spore suspension at 600 nm (germination): 25 g/l Bacto-LB broth plus AGFK germinator, 37° C., 2 hours; for inhibition at 1000 µg/mL: Bacillus subtilis, 0.5 h, LB broth plus AGFK, variation of OD600 for 30 minutes, test group 1 = 100%, test group 2 = 0%, read-out: germination inhibition rate
Procedure: Thereupon, in order to examine germination-inhibitory effects by the combination of CPC and D-alanine which is a known germination-inhibitory substance, the following test groups were prepared. Spore suspension containing 0.1 mg/ml Bacillus subtilis spores, 20 mM Tris.HCl, pH 7.5. Spore suspension containing 0.1 mg/ml Bacillus subtilis, 25 g/l Bacto-LB broth, Miller (DIFCO) as sufficient nutrients, and 10 mM L-asparagine, 1 mM D-glucose, 1 mM D-fructose and 10 mM KCl (AGFK system) as germinator. Spore suspension as above containing the sufficient nutrients (Test Group 2) and further containing 1 mg/ml CPC. Spore suspension as above containing the sufficient nutrients (Test Group 2) and further containing 1 mg/ml D-alanine. Spore suspension as above containing the sufficient nutrients (Test Group 2) and further containing 1 mg/ml CPC and 1 mg/ml D-alanine. The above spore suspensions were allowed to react at 37° C. for 2 hours, and spore germination conditions were examined. The variation of the turbidity of each test group was measured through the above reaction at 600 nm using a spectrophotometer. […] After 2 hours, the turbidity became the same turbidity as the initial one, and growth subsequest to the germination (vegetative growth) was observed. […] Each inhibition rate was calculated based on the variation of OD600 value for 30 minutes from the start of measurement wherein the germination inhibition rate in the test group 1 is assigned 100% and that in the test group 2 is assigned 0%.

SMILES | spore germination observed by phase-contrast microscope (Bacillus subtilis spores [1]; AGFK germinator) | spore germination by turbidity of the spore suspension at 600 nm (Bacillus subtilis spores [1]; germinator 10 mM L-asparagine, 1 mM D-glucose, 1 mM D-fructose, 10 mM KCl) | solubility [2] | variation of the turbidity of the spore suspension at 600 nm (germination) (Bacillus subtilis spores [3]) | inhibition at 1000 µg/mL (Bacillus subtilis spores [3]) [%]
NC(=O)c1cccc(C(=O)O)n1 [CPC, 6-carbamoyl-2-pyridine carboxylic acid] | germination of spores was not recognized | germination was not observed | Soluble in water, particularly alkaline water, and organic solvent, such as pyridine and DMSO | growth subsequent to the germination was observed | 9
C[C@@H](N)C(=O)O [D-alanine, reference compound] |  |  |  | growth subsequent to the germination was observed | 16
